From article PMC2844763 (Bioorganic & medicinal chemistry letters, 2010)
“Also recorded” adds a separate entry of the source.

Assays:
E. coli MetAP = E. coli MetAP (Escherichia coli, UniProt P0AE18); assay: cell-based MetAP assay; conditions: Ca(II) treated cells; result in words
[1] = tested on: E. coli MetAP in the Fe(II)-form; conditions: result in words; ref [11] and [16]; cited from earlier work
E. coli AS19 strain = conditions: result in words; ref [11] and [16]; cited from earlier work
MetAP in the Co(II)-form = conditions: result in words; ref [10]; cited from earlier work

Chain of E. coli MetAP (P0AE18 whole entry): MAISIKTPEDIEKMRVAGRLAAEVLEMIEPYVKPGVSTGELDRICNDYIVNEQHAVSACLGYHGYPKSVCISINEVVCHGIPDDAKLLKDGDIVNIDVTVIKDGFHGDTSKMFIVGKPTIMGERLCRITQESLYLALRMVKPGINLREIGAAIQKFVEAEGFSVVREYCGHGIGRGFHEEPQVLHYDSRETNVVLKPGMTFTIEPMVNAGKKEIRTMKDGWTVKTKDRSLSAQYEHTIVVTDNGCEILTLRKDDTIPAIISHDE

| Structure (SMILES) | inhibition of intracellular Met-AMC hydrolysis (cellular MetAP activity) (E. coli MetAP) | inhibition of purified MetAP in the Fe(II)-form [1] | inhibition of bacterial growth (E. coli AS19 strain) | potency and selectivity towards purified MetAP in the Co(II)-form (MetAP in the Co(II)-form) |
| --- | --- | --- | --- | --- |
| COc1ccc(-c2csc(C)n2)cc1OC [compound 2] | decreased potency | – | – | – |
| O=C(NCc1ccccn1)C(=O)Nc1nccs1 [compound 31] | no inhibition | weak inhibition | did not halt bacterial growth | highly potent and selective |
| O=C(NC1CC1)c1ccc(-c2ccc(O)c(O)c2)s1 [compound 22] | exceptions | – | – | – |
| Cc1nc(-c2ccc(O)cc2O)cs1 [compound 4] | no inhibition | – | – | – |
| O=C(O)c1ccc(-c2cc(Cl)ccc2Cl)o1 [compound 29] | – | weak inhibition | did not halt bacterial growth | – |
| O=C(Nc1nccs1)C(=O)NC1CCCC1 [compound 30] | no inhibition | weak inhibition | did not halt bacterial growth | highly potent and selective |
| O=C(NC1CC1)c1ccsc1-c1ccc(O)c(O)c1 [compound 23] | exceptions | – | – | – |
| Cc1nc(-c2cccc(O)c2)cs1 [compound 3] | no inhibition | – | – | – |
| O=C(O)c1ccc(-c2ccccc2Cl)o1 [compound 28] | – | weak inhibition | did not halt bacterial growth | – |
| Cc1nc(-c2ccc(O)c(O)c2)cs1 [compound 1] | displayed inhibition; also recorded: inhibited in a time-dependent fashion | – | – | – |
